Consider 22 molecules from PMC6131205, “Controlling the regioselectivity and stereospecificity of FAD-dependent polyamine oxidases with the use of amine-attached guide molecules as conformational modulators” (Bioscience Reports, 2018).

Usually Ki stands for the dissociation constant of the complex between target and ligand, obtained from inhibition or displacement. Low readings indicate higher affinity, high ones lower affinity. As usually defined, the Km is the concentration of substrate that gives half-maximal velocity. What is called Vmax is the top rate of the reaction or transport when substrate is in excess. What is called kcat is the maximal rate divided by the concentration of active sites.

The target in assay [1] is T1, Fms1 (Saccharomyces cerevisiae, UniProt P50264). Kind of assay: Fms1 cleavage of 1 mM Spd supplemented with aldehydes (E1/E2 regioselectivity).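 On all read-outs here: recombinant yeast Fms1 reactions in Glycine-NaOH buffer, with products Put and DAP quantified by HPLC using post-column o-phthalaldehyde derivatization.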 The following applies: for E1 cleavage (Put) kcat / E2 cleavage (DAP) kcat / Ratio of E1/E2: fixed 1 mM Spd, aldehyde 25-1000 μM, pH 9.0, 25°C; for effect on cleavage site balance of Spd: Spd plus aldehyde. Details: made in house. It is filed as biochemical, yeast.
T1 sequence (P50264 whole entry): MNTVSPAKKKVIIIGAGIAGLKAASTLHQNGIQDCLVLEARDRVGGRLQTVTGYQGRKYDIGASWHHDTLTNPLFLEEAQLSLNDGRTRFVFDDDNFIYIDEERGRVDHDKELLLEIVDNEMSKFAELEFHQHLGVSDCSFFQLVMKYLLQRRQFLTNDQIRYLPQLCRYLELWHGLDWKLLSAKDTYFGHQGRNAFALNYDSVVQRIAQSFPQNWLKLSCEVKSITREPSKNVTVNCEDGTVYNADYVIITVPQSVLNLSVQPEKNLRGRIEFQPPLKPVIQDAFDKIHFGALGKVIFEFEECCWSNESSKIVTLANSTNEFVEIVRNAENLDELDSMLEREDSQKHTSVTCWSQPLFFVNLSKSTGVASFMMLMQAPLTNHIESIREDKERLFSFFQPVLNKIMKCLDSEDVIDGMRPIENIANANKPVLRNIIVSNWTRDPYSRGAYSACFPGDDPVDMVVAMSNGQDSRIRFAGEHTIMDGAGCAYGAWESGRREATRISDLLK
Protocol: (§1) HPLC with post-column o-phthalaldehyde-derivatization was used to determine the concentrations of the reaction products Put and 1,3-diaminopropane (DAP) or butane-1,3-diamine respectively as described in [30]. Fms1 activity was determined essentially as described for human recombinant APAO, but reactions were carried out in 100 mM Glycine-NaOH buffer at pH 9.0 in a water bath at +25°C [29, 30].

Assay [2] deals with SMOX (Homo sapiens, UniProt Q9NWM0). Nature of the assay: Inhibition of SMOX (Ki, peroxidase-coupled fluorescence, Spm as substrate).
SMOX, sequence (Q9NWM0 whole entry): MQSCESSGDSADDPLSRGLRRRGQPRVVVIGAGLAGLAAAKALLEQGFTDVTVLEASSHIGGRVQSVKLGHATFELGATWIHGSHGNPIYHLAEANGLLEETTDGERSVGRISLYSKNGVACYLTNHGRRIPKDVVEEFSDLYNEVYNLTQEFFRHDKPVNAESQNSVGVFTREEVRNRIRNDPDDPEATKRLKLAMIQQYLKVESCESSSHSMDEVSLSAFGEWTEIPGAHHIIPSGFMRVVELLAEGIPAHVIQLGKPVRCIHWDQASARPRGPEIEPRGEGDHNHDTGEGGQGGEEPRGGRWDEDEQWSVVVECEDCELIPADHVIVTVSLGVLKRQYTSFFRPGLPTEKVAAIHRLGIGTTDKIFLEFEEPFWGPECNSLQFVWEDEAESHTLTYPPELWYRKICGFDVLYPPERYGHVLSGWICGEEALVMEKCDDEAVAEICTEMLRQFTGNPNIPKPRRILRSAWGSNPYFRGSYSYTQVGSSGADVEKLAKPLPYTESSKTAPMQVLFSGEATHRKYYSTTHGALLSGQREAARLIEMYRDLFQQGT
Protocol: Reaction mixtures contained 40 units/ml horseradish peroxidase (Roche), 1 mM homovanillic acid in 100 mM Glycine-NaOH at pH 9.0 supplemented with 40 ng of SMOX. […] Dilutions of fresh H2O2 were used as standard.
Assay [3] has as its target T2, human recombinant APAO (Homo sapiens, UniProt Q6QHF9).
T2 construct: made in house
Nature of the assay: Substrate kinetics with human recombinant APAO (HPLC of reaction products). Type of assay: biochemical. Particulars: 100 mM Glycine-NaOH pH 9.5, 5 mM DTT.

In assay [4] the target is T1, Fms1. Kind of assay: Substrate kinetics with recombinant Fms1 (HPLC of reaction products).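 Further: recombinant polyamine oxidases incubated with substrate, product amines (putrescine, 1,3-diaminopropane or butane-1,3-diamine) quantified by HPLC after post-column o-phthalaldehyde derivatization.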
Protocol: as §1
The reactions were carried out in 1 triplicate at pH 9.0 in 100 mM Glycine-NaOH at +25°C.
values for N -Ac-MeSpd enantiomers were determined by using substrate concentrations of 25, 50,
for Rac-MeSpd 30 min, (R)-MeSpd 20 min and (S)-MeSpd 40 minutes.
The reactions were carried out in triplicate at pH 9.0 in 100 mM Glycine-NaOH at +25°C.
values for MeSpd enantiomers were determined by using substrate concentrations of 100, 300, 600,
1000, 2000 and 4000 M. Recombinant Fms1 was 3.8 g/reaction and the incubation time 60
incubated for 30 min (half of the reaction time of an ordinary sample). E1 cleavage was monitored
by HPLC by measuring Put formation and E2 cleavage by determining butane-1,3-diamine content.
Where [5] appears, read: Ki (best-fit value, noncompetitive inhibition), GraphPad Prism global fit, supplement.
Setting [6] is: Ki, non-competitive fit, 25, 50 or 100 µM Spm, pH 9.0, 37°C.
Where [7] appears, read: Supplementary Table 1, pH 9.0, 100 mM Glycine-NaOH, 25°C, Put formation.

T2 sequence (Q6QHF9 whole entry): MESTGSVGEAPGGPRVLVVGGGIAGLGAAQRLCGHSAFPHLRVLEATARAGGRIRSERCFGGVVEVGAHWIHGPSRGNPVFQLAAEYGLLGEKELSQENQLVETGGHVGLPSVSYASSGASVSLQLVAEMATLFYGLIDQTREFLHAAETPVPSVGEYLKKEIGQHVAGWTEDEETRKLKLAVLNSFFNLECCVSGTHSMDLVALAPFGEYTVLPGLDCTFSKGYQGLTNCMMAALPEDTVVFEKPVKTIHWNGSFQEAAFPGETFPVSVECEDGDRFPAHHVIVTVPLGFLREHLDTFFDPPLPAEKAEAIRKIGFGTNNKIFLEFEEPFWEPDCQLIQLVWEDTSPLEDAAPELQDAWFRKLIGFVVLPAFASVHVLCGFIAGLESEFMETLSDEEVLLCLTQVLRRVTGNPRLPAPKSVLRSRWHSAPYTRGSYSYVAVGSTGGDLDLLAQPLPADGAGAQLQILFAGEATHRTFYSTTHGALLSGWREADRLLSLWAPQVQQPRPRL

In the case of `O=Cc1ccccc1[N+](=O)[O-]` [C00011], in assay [1], the “E1 cleavage (Put) kcat” value turned out to be 1.06 ± 0.04 s⁻¹ and the “E2 cleavage (DAP) kcat” value was found to be 0.03 ± 0.00 s⁻¹.
On to `O=CC1CCCCC1` [C00010], for which, in assay [1], the “E1 cleavage (Put) kcat” value amounted to 1.41 ± 0.04 s⁻¹, the “E2 cleavage (DAP) kcat” value is 0.43 ± 0.01 s⁻¹ and the “Ratio of E1/E2” value was found to be 5.4.
`O=Cc1cccc(O)c1` [A6]: the “effect on cleavage site balance of Spd” value in assay [1] is “shifted the balance towards E2 cleavage site”.
Molecule `C[C@@H](CCNCCCCN)NC(=O)c1ccccc1` [Bz-(S)-MeSpd] had a Ki in assay [2] (setting [5]) of 846 µM. Moreover, the inhibition constant Ki in assay [2] (setting [6]) was found to be 846 ± 82 µM. Further, in assay [3], the Km stood at 0.2 ± 0.2 µM, the Vmax turned out to be 0.03 ± 0.00 µmol/min/mg and the kcat came out at 0.03 ± 0.00 s⁻¹.
In the case of `Cc1ncc(CO)c(C=O)c1O` [C00008], the “E1 cleavage (Put) kcat” value in assay [1] was found to be 1.13 ± 0.03 s⁻¹.
With `C[C@H](CCNCCCCN)NC(=O)c1ccccc1` [Bz-(R)-MeSpd], the inhibition constant (Ki) in assay [2] (setting [5]) was found to be 589 µM. In assay [2] (setting [6]), the Ki stood at 589 ± 58 µM. In assay [3], the Km was determined as 1.2 ± 0.7 µM, the maximum rate (Vmax) came to 5.02 ± 0.74 µmol/min/mg and the turnover number (kcat) turned out to be 4.6 ± 0.7 s⁻¹.
In the case of `O=Cc1ccccc1[N+](=O)[O-]` [A7], in assay [1] (Spd plus aldehyde vs Spd alone), the “increase of the ratio of the cleavage pathways (E1/E2)” value came to 5 fold.
Molecule `C[C@@H](CCNCCCCN)NC(=O)c1ccncc1` [P4-(S)-MeSpd] came in with a Ki in assay [2] (setting [5]) of 1020 µM. The molecule also returned an inhibition constant Ki in assay [2] (setting [6]) of 1020 ± 79 µM. In assay [3], the Michaelis constant (Km) was 0.8 ± 0.2 µM, the maximum rate (Vmax) was found to be 0.02 ± 0.00 µmol/min/mg and the kcat amounted to 0.01 ± 0.00 s⁻¹.
For the molecule `O=Cc1ccccn1` [C00007], in assay [1], the “E1 cleavage (Put) kcat” value amounted to 0.49 ± 0.01 s⁻¹, the “E2 cleavage (DAP) kcat” value worked out at 0.49 ± 0.01 s⁻¹ and the “Ratio of E1/E2” value turned out to be 2.2.
Take `COc1ccc(C=O)cc1` [C00009]: in assay [1], the “E1 cleavage (Put) kcat” value was 0.13 ± 0.00 s⁻¹ and the “E2 cleavage (DAP) kcat” value is 0.22 ± 0.00 s⁻¹.
For `O=Cc1ccc(O)cc1` [C00004], in assay [1], the “E1 cleavage (Put) kcat” value worked out at 0.11 ± 0.00 s⁻¹, the “E2 cleavage (DAP) kcat” value was determined as 0.03 ± 0.00 s⁻¹ and the “Ratio of E1/E2” value turned out to be 118.
Consider `CC(=O)NCCCNCCCCN` [N^1-AcSpd, reference compound], for which, in assay [4] (setting [7]), the kcat turned out to be 65 ± 2 s⁻¹.
With `COc1ccc(C=O)cc1` [A4], the “effect on cleavage site balance of Spd” value in assay [1] is “shifted the balance towards E2 cleavage site”.
In the case of `C[C@H](CCNCCCCN)NC(=O)c1ccncc1` [P4-(R)-MeSpd], the inhibitory constant (Ki) in assay [2] (setting [5]) is 1280 µM. The molecule also returned an inhibitory constant (Ki) in assay [2] (setting [6]) of 1280 ± 111 µM. In assay [3], the Michaelis-Menten constant (Km) turned out to be 3.6 ± 0.6 µM, the maximum rate (Vmax) was 5.59 ± 0.60 µmol/min/mg and the kcat worked out at 5.2 ± 0.6 s⁻¹.
`O=Cc1ccccn1` [A18]: the “effect on cleavage site balance of Spd” value in assay [1] was “shifted the balance towards E2 cleavage site”.
Regarding `O=Cc1cccnc1` [C00006], in assay [1], the “E1 cleavage (Put) kcat” value is 5.5 ± 0.1 s⁻¹, the “E2 cleavage (DAP) kcat” value stood at 0.48 ± 0.01 s⁻¹ and the “Ratio of E1/E2” value is listed as 8.0.
On the same counts, the results for `O=Cc1ccncc1` [C00005] are 7.4 ± 0.2 s⁻¹, 0.19 ± 0.01 s⁻¹ and 12.9.
On to `NCCCCNCCCN` [Spd, spermidine, reference compound], for which the “Ratio of E1/E2” value in assay [4] (substrate alone, no aldehyde, pH 9.0, 25°C) is listed as 7.5.
With `O=Cc1ccccc1O` [C00002], in assay [1], the “E1 cleavage (Put) kcat” value is 0.54 ± 0.01 s⁻¹, the “E2 cleavage (DAP) kcat” value was 0.08 ± 0.00 s⁻¹ and the “Ratio of E1/E2” value was found to be 5.2.
`CC(=O)NC(C)CCNCCCCN` (stereo not drawn) [N1-Ac-MeSpd, N8-Acetyl-1,8-diamino-5-azanonane]: in assay [4] (setting [7]), the Vmax came to 50 ± 3 nmol/min/mg and the catalytic constant (kcat) turned out to be 0.05 ± 0.00 s⁻¹.
For the molecule `O=Cc1cccc(O)c1` [C00003], in assay [1], the “E1 cleavage (Put) kcat” value worked out at 0.31 ± 0.01 s⁻¹, the “E2 cleavage (DAP) kcat” value was determined as 0.47 ± 0.01 s⁻¹ and the “Ratio of E1/E2” value is listed as 0.22.
The corresponding values for `O=Cc1ccc([N+](=O)[O-])cc1` [C00012] are 0.37 ± 0.00 s⁻¹, 0.05 ± 0.00 s⁻¹ and 6.4.
